# Data reported in patent US5248680A, “Zwitterionic compounds and their n-halo derivatives for use in the treatment of clinical conditions” (Bloomfield D.A., priority 1990, dated 1993).
# Like-named read-outs stand apart in the source and are kept apart here.
# Experiments:
# myeloperoxidase [1] = assay: Binding of zwitterion to myeloperoxidase (preliminary studies)
# neutrophils [2] = assay: Leukotriene B4 in supernatants of stimulated neutrophils; assay type: cell-based, human; conditions: 10 mM HEPES, mean ± S.E.M.; for activity at 10000 µM: Homo sapiens, Neutrophil, read-out: Leukotriene B4 production by neutrophils
# Description: (§1) Patients were selected with mild to moderate plaque-type psoriasis on the basis of clinical and histological evidence of disease. Normal volunteers were selected from laboratory personnel without personal or family history of inflammatory disease. Disease control groups included: a) patients with eczema, acne and dermatitis herpetiformis; and b) patients with Crohn's disease and ulcerative colitis.
# (§2) Blood samples from each subject were drawn into sodium heparin Vacutainers® (Vacutainer is a Trade Mark). The inflammatory cells (neutrophils) were isolated by dextran sedimentation and FICOLL-PAQUE®(FICOLL-PLAQUE is a Trade Mark) gradient centrifugation. Viability and purity were assessed by fluorescence microscopy, using ethidium bromide and acridine orange staining.
# (§3) It was therefore proposed to test the hypothesis that HEPES could inactivate leukotriene B4 by indirect stimulation of MPO leading to increased production of hypochlorous acid from cellular hydrogen peroxide.
# For the methodology used in the in vitro studies hereinafter described reference should be made to McLoughlin, D. M. et al. Biochem. Soc. Trans. (1991) 19:73-78 hereby incorporated by reference, except where otherwise stated.
# [3] = Skin penetration and percutaneous absorption of 14C-HEPES after a single topical dose; assay type: in vivo, human; conditions: for Mean urinary excretion of radioactivity: mean (S.D.), up to 120 hours
# Protocol: The skin penetration and percutaneous absorption of radioactivity following topical administration of a single does of ^14 C-HEPES (approximately 100 mg 5% cream containing 70 uCi ^14 C) was investigated in two groups of six healthy male volunteers. The dose was applied to intact skin in one group and to skin stripped 10 times with scotch tape in the second group. The unabsorbed material was removed after 12 hours and the area of application was stripped 10 times in order to determine skin penetration. Blood, urine and faeces samples were collected up to 120 hours after dose application for assessment of total radioactivity.
# myeloperoxidase [4] = assay: Myeloperoxidase activity of neutrophils after preincubation with zwitterion; assay type: cell-based, human; conditions: 10 mM HEPES, mean ± S.E.M.
# Description: as §1, §2
# monocytes = assay: Leukotriene B4 in stimulated monocytes; assay type: cell-based, human; conditions: preincubation with 10 mM HEPES or 40 mM taurine; data not shown
# Description: as §3
# [5] = test system: carrageenan induced paw oedema; assay: Carrageenan-induced paw oedema in rats; assay type: in vivo, rat
# Protocol: The studies were conducted on inbred Wistar strain albino rats (120-180 g) of either sex. The rats were housed in colony cages at an ambient temperature of 25°±2° C. and fed on standard pellet chow. The rats were anaesthetized using pentobarbitone sodium, their hind paws were marked and the volume measured. […] The control animals were injected with 10 μl of 0.9% saline solution. […] One hour following the carrageenan injection the hind paw volume was measured again. A 5 ml blood sample was taken from each animal into sodium heparin Vacutainers. Chemiluminescence activity was assayed in the PBMC isolated from each animal.
# These studies were also conducted on inbred Wistar strain albino rats (120-180 g) of either sex. The rats were anaesthetized using pentobarbitone sodium prior to marking each hind paw and measuring paw volume. […] The control animals received 0.5 ml of 0.9% NaCl subcutaneously. 30 min after the injections were administered, paw oedema was induced using carrageenan. One hour following carrageenan administration the hind paw volume was measured. A 5 ml blood sample was taken from each animal into sodium heparin Vacutainers and used for chemiluminescence measurement.
# catalase = assay: Catalase activity of neutrophils after preincubation; assay type: cell-based, human; conditions: neutrophils preincubated with HEPES or taurine; data not shown
# neutrophils [6] = assay: Hypochlorous acid production by neutrophils; assay type: cell-based; conditions: Homo sapiens, Neutrophil, 10 mM HEPES, mean ± S.E.M.
# Description: as §1, §2
# [7] = test system: peripheral blood neutrophils; assay: Chemiluminescence (reactive oxidant production) of peripheral blood neutrophils stimulated with calcium ionophore; assay type: cell-based; conditions: Homo sapiens, Neutrophil, 10 mM HEPES, mean ± S.E.M., read-out: Chemiluminesence production by neutrophils
# Description: Patients were selected with mild to moderate plaque-type psoriasis on the basis of clinical and histological evidence of disease. Normal volunteers were selected from laboratory personnel without personal or family history of inflammatory disease. Disease control groups included: a) patients with eczema, acne and dermatitis herpetiformis; and b) patients with Crohn's disease and ulcerative colitis. Blood samples from each subject were drawn into sodium heparin Vacutainers® (Vacutainer is a Trade Mark). The inflammatory cells (neutrophils) were isolated by dextran sedimentation and FICOLL-PAQUE®(FICOLL-PLAQUE is a Trade Mark) gradient centrifugation. Viability and purity were assessed by fluorescence microscopy, using ethidium bromide and acridine orange staining. […] Chemiluminescence activity of the peripheral blood neutrophils was tested using the method of Bloomfield, F. J. and Young, M. M. (Inflammation, (1982) 6, 257, hereby incorporated by reference), using calcium ionophore (2μ Molar) as stimulant instead of opsonized zymosan. Chemiluminescence is a measure of the production of reactive oxidants by neutrophils in response to an inflammatory stimulus. It was observed that there was significant reduction in chemiluminescence activity by neutrophils in the taurine-treated and HEPES-treated cells compared to control cells in all groups.
# neutrophils [8] = assay: Degranulation of lysosomal enzymes by neutrophils stimulated with calcium ionophore; assay type: cell-based, human; conditions: for activity at 10000 µM: Homo sapiens, Neutrophil, 10 mM HEPES, mean
# Description: as §1, §2
# Stimulation of the inflammatory process in neutrophils, not only activates the respiratory burst, but as a consequence, is also associated with release of lysosomal enzymes from the cells in a process called degranulation. Degranulation of lysosomal enzymes was stimulated in neutrophils from each group of subjects, using calcium ionophore as inflammatory stimulant.
# [9] = Normal + iodide (1 mM potassium iodide)
smiles,measurement,setting,value
"O=S(=O)(O)CCN1CCN(CCO)CC1 [HEPES, N-2-hydroxyethylpiperazine-N'-2-ethanesulphonic acid]",binding to the enzyme (MPO),myeloperoxidase [1],did not bind to the enzyme
same,Leukotriene B4 production by neutrophils,neutrophils [2]; [9],no measurable leukotriene B4
same,activity at 10000 µM,neutrophils [2]; [9],0%
same,activity at 10000 µM,neutrophils [2]; Normal,55.8 ± 8.9%
same,activity at 10000 µM,neutrophils [2]; Psoriasis,22.4 ± 6.62%
same,activity at 10000 µM,neutrophils [2]; disease controls (a),24.9 ± 8.99%
same,activity at 10000 µM,neutrophils [2]; disease controls (b),16.7 ± 6.42%
same,tolerability of single topical dose,[3]; intact and stripped skin groups,well tolerated
same,Mean urinary excretion of radioactivity,[3]; intact skin group,0.07+0.08% of the applied dose
same,radioactivity in 48-72 hour faecal sample,[3]; one subject of the stripped skin group,0.11 % of the applied dose
same,"abnormalities in biochemistry, haematology and urinalysis screens",[3]; single topical dose,not considered to be related
same,radioactivity in plasma or faecal samples,"[3]; single topical dose approx. 100 mg 5% cream, intact and stripped skin groups, samples up to 120 hours",No radioactivity was detected
same,Mean urinary excretion of radioactivity,[3]; stripped skin group,0.20±0.22% of the applied dose
same,Myeloperoxidase activity of neutrophils,myeloperoxidase [4]; Normal,228 ± 25.4 percentage activity of control
same,Myeloperoxidase activity of neutrophils,myeloperoxidase [4]; Psoriasis,247 ± 30.1 percentage activity of control
same,Myeloperoxidase activity of neutrophils,myeloperoxidase [4]; disease controls (a),198 ± 17.1 percentage activity of control
same,Myeloperoxidase activity of neutrophils,myeloperoxidase [4]; disease controls (b),211 ± 56.4 percentage activity of control
same,reduction of leukotriene B4 in monocytes,monocytes,also demonstrated in monocytes
same,percentage increase in paw volume,"[5]; I.P. 500 μg HEPES, 1 h after carrageenan, mean ± S.E.M.",23 ± 4 percentage increase in paw volume
same,reduction in paw oedema,"[5]; intraperitoneal 500 μg HEPES, versus control",50%
same,effect on catalase activity,catalase,no effect on catalase activity
same,activity at 10000 µM,neutrophils [6]; Normal,211 ± 12.5%
same,activity at 10000 µM,neutrophils [6]; Psoriasis,193 ± 10.7%
same,activity at 10000 µM,neutrophils [6]; disease controls (a),152 ± 8.3%
same,activity at 10000 µM,[7]; Normal,28.8 ± 4.24%
same,activity at 10000 µM,[7]; Psoriasis,26.9 ± 3.25%
same,activity at 10000 µM,"[7]; disease controls (a) eczema, acne, dermatitis herpetiformis",28.8 ± 3.84%
same,activity at 10000 µM,"[7]; disease controls (b) Crohn's disease, ulcerative colitis",25.4 ± 6.4%
same,activity at 10000 µM,neutrophils [8]; Normal,104%
same,activity at 10000 µM,neutrophils [8]; Psoriasis,104%
same,activity at 10000 µM,neutrophils [8]; disease controls (a),87.2%
same,degranulation by preincubated neutrophils compared to control cells,"neutrophils [8]; result in words, taurine data not shown",no difference in degranulation
